Experiments:
[1] = female, human, in vivo, 20 h
Method: Twelve healthy Caucasian women aged 54-62 years (mean 58.3 years), with a weight of 51 to 67 kg (mean 60.6 kg±5.1) and a body mass index ranging between 19.4-25.5 kg/m2 (mean 23.12 kg/m2±2.05) were enrolled. They were administered, on three separate treatment periods of one week, either two consecutive (3Z,5S) doses of 600 mg/day (administered to subjects using 3 dispersible tablets of 200 mg in 150 ml of water) or two intramuscular injections of 12 mg/day betamethasone or both drugs in combination.
Therefore, pharmacokinetic parameters of the treatment with (3Z,5S) dispersible tablets were calculated for 12 subjects, whereas pharmacokinetic parameters of the combination treatment were assessed for 11 participants.
During each treatment period of one week, blood samples were collected for the analysis of (3Z,5S) and betamethasone at time points 0 (pre-dose) and at 0.25, 0.5, 0.75, 1, 1.5, 2, 3, 4, 6, 8, 10, 12, 16, 20 and 24 hours after first dose on day 1. The plasma was prepared and stored below −20° C. All samples were analysed using validated LC-MS/MS methods. For the analysis of (3Z,5S), the lower limit of quantification was 1.0 ng/ml. For betamethasone analyses, the lower limit of quantification was 0.5 ng/ml.
Pharmacokinetic parameters were estimated by non-compartmental methods using the Phoenix® WinNonLin® version 6.3 (Pharsight). […]

[2] = Qualitative solubility/crystallisation tests in solvents (15 mg scale); format: physicochemical

- % of Cmax [1]: 25%
- Qualitative solubility, Dissolves in ([2]; solvent DIPE): 40 vol hot
- Qualitative solubility, Dissolves in ([2]; solvent IPA): 4 vol hot
- Qualitative solubility, Dissolves in ([2]; solvent MIBK): 4 vol hot
- Qualitative solubility, Dissolves in ([2]; solvent THF): 4 vol cold
- Qualitative solubility, Dissolves in / Comment ([2]; solvent heptanes): insoluble in 20 vol
- Qualitative solubility, Dissolves in ([2]; solvent tBuOH): 6 vol hot
- Qualitative solubility, Dissolves in ([2]; solvent toluene): 2 vol cold
Structure (SMILES): CO/N=C1/C[C@@H](CO)N(C(=O)c2ccc(-c3ccccc3C)cc2)C1 [(3Z,5S), (3Z,5S)-5-(hydroxymethyl)-1-[(2′-methyl-1,1′-biphenyl-4-yl)carbonyl]pyrrolidin-3-one-O-methyloxime]

Source: US20170065556A1, “ORAL FORMULATIONS OF PYRROLIDINE DERIVATIVES” (OBSEVA S.A., priority 2013, published 2017)
